Data published in patent publication US20190048016A1, “SUBSTITUTED BRIDGED UREA ANALOGS AS SIRTUIN MODULATORS” (GlaxoSmithKline Intellectual Property(No.2)Limited, priority 2014, published 2019).

Target: T1, SIRT1 (Homo sapiens, UniProt Q96EB6)
T1 sequence (Q96EB6 1-747): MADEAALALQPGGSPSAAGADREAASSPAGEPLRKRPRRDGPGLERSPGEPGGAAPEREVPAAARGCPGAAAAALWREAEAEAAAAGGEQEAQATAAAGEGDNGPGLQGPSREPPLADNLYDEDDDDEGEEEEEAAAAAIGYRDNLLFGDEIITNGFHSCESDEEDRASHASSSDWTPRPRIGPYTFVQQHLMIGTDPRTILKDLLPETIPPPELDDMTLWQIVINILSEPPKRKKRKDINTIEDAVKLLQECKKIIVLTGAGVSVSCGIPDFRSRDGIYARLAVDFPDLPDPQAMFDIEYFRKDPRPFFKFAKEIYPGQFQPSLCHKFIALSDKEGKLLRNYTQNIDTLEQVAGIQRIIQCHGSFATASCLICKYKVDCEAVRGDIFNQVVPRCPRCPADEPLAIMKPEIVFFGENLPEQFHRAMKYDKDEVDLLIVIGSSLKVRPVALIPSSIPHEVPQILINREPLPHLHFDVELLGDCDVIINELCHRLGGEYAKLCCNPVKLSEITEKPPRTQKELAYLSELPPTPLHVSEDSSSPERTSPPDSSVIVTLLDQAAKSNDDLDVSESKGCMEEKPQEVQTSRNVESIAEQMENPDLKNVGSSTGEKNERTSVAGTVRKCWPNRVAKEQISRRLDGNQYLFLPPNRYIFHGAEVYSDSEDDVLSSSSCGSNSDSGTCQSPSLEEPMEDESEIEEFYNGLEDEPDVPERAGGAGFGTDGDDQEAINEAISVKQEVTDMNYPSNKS
Test: Trp mass spectrometry assay of SIRT1 activation (deacetylation of Ac-R-H-K-K(Ac)-W-NH2 peptide, OAADPR formation)
Type: biochemical
Conditions: Trp peptide 0.5 μM, 120 μM βNAD+, 10 nM SIRT1, 25 min, 25° C.; for Emax: 25 min, read-out: TRP MAX RESP (percent maximum fold activation relative to control = 100%)
Source text: Mass spectrometry based assays were used to identify modulators of SIRT1 activity. The TAMRA based assay utilized a peptide having 20 amino acid residues as follows: Ac-EE-K(biotin)-[…](Ac)NleSTEG-K(5TMR)-EE-NH2 (SEQ ID NO: 1), wherein K(Ac) is an acetylated lysine residue and Nle is a norleucine. The peptide was labeled with the fluorophore 5TMR (excitation 540 nm/emission 580 nm) at the C-terminus. The sequence of the peptide substrate was based on p53 with several modifications. In addition, the methionine residue naturally present in the sequence was replaced with the norleucine because the methionine may be susceptible to oxidation during synthesis and purification. The Trp based assay utilized a peptide having an amino acid residues as follows: Ac-R-H-K-K(Ac)-W-NH2 (SEQ ID NO: 2).
The Trp mass spectrometry assay was conducted as follows. 0.5 μM peptide substrate and 120 μM βNAD^+ were incubated with 10 nM SIRT1 for 25 minutes at 25° C. in a reaction buffer (50 mM HEPES pH 7.5, […], 1 mM DTT, 0.05% BSA). The SIRT1 protein was obtained by cloning the SirT1 gene into a T7-promoter containing vector, which was then expressed in BL21(DE3) bacterial cells and purified as described in further detail below. Test compound was added at varying concentrations to this reaction mixture and the resulting reactions were monitored. After the 25 minute incubation with SIRT1, 10 μL of 10% formic acid was added to stop the reaction. The resulting reactions were sealed and frozen for later mass spec analysis. The relative SIRT1 activity was then determined by measuring the amount of O-acetyl-ADP-ribose (OAADPR) formed (or, alternatively, the amount of deacetylated Trp peptide generated) by the NAD-dependent sirtuin deacetylation reaction in the presence of varying concentrations of the test compound versus control reactions lacking the test compound. The degree to which the test agent activated deacetylation by SIRT1 was expressed as EC1.5 (i.e., the concentration of compound required to increase SIRT1 activity by 50% over the control lacking test compound), and Percent Maximum Activation (i.e., the maximum activity relative to control (100%) obtained for the test compound).
A control for inhibition of sirtuin activity was conducted by adding 1 μL of 500 mM nicotinamide as a negative control at the start of the reaction (e.g., permits determination of maximum sirtuin inhibition). A control for activation of sirtuin activity was conducted using 10 nM of sirtuin protein, with 1 μL of DMSO in place of compound, to determine the amount of deacetylation of the substrate at a given time point within the linear range of the assay. This time point was the same as that used for test compounds and, within the linear range, the endpoint represents a change in velocity.
For the above assay, SIRT1 protein was expressed and purified as follows. The SirT1 gene was cloned into a T7-promoter containing vector and transformed into BL21(DE3). The protein was expressed by induction with 1 mM IPTG as an N-terminal His-tag fusion protein at 18° C. overnight and harvested at 30,000×g. Cells were lysed with lysozyme in lysis buffer (50 mM Tris-HCl, 2 mM Tris[2-carboxyethyl] phosphine (TCEP), 10 μM ZnCl2, 200 mM NaCl) and further treated with sonication for 10 min for complete lysis. The protein was purified over a Ni-NTA column (Amersham) and fractions containing pure protein were pooled, concentrated and run over a sizing column (Sephadex S200 26/60 global). The peak containing soluble protein was collected and run on an Ion-exchange column (MonoQ). Gradient elution (200 mM-500 mM NaCl) yielded pure protein. This protein was concentrated and dialyzed against dialysis buffer (20 mM Tris-HCl, 2 mM TCEP) overnight. The protein was aliquoted and frozen at −80° C. until further use.
Sirtuin-modulating compounds of Formula (I) that activated SIRT1 were identified using the assay described above and are shown below in Table 1. […]

Row | Emax [%] | TRP Activity (EC1.5, concentration of compound required to increase SIRT1 activity by 50% over control) | SMILES
1 | ≥ 150 | A (EC1.5<1 μM) | O=C(Nc1cncc(F)c1)N1c2nc(-c3ccnc(C(F)(F)F)c3)ccc2N2CCC[C@H]1C2 [Example 2, (9S)-N-(5-fluoropyridin-3-yl)-2-(2-(trifluoromethyl)pyridin-4-yl)-8,9-dihydro-6H-5,9-methanopyrido[2,3-b][1,4]diazocine-10(7H)-carboxamide]
2 | ≥ 150 | A (EC1.5<1 μM) | O=C(Nc1cncnc1)N1c2nc(-c3cncc(C(F)(F)F)c3)ccc2N2CCC[C@H]1C2 [Example 3, (9S)-N-(pyrimidin-5-yl)-2-(5-(trifluoromethyl)pyridin-3-yl)-8,9-dihydro-6H-5,9-methanopyrido[2,3-b][1,4]diazocine-10(7H)-carboxamide]
3 | ≥ 150 | A (EC1.5<1 μM) | Cc1cc(-c2ccc3c(n2)N(C(=O)Nc2ccccn2)[C@H]2CCCN3C2)ccn1 [Example 4, (9S)-2-(2-methylpyridin-4-yl)-N-(pyridin-2-yl)-8,9-dihydro-6H-5,9-methanopyrido[2,3-b][1,4]diazocine-10(7H)-carboxamide]
4 | ≥ 150 | A (EC1.5<1 μM) | Cc1cc(-c2ccc3c(n2)N(C(=O)Nc2cncc(F)c2)[C@H]2CCCN3C2)ccn1 [Example 5, (9S)-N-(5-fluoropyridin-3-yl)-2-(2-methylpyridin-4-yl)-8,9-dihydro-6H-5,9-methanopyrido[2,3-b][1,4]diazocine-10(7H)-carboxamide]
5 | ≥ 150 | A (EC1.5<1 μM) | O=C(Nc1cccnn1)N1c2nc(-c3ccnc(C(F)(F)F)c3)ccc2N2CCC[C@H]1C2 [Example 6, (9S)-N-(pyridazin-3-yl)-2-(2-(trifluoromethyl)pyridin-4-yl)-8,9-dihydro-6H-5,9-methanopyrido[2,3-b][1,4]diazocine-10(7H)-carboxamide]
6 | ≥ 150 | A (EC1.5<1 μM) | O=C(Nc1ccccn1)N1c2nc(-c3ccnc(C(F)(F)F)c3)ccc2N2CCC[C@H]1C2 [Example 7, (9S)-N-(pyridin-2-yl)-2-(2-(trifluoromethyl)pyridin-4-yl)-8,9-dihydro-6H-5,9-methanopyrido[2,3-b][1,4]diazocine-10(7H)-carboxamide]
7 | ≥ 150 | A (EC1.5<1 μM) | O=C(Nc1ccncn1)N1c2nc(-c3ccnc(C(F)(F)F)c3)ccc2N2CCC[C@H]1C2 [Example 9, (9S)-N-(pyrimidin-4-yl)-2-(2-(trifluoromethyl)pyridin-4-yl)-8,9-dihydro-6H-5,9-methanopyrido[2,3-b][1,4]diazocine-10(7H)-carboxamide]
8 | ≥ 150 | A (EC1.5<1 μM) | O=C(Nc1cncnc1)N1c2nc(-c3ccnc(C(F)(F)F)c3)ccc2N2CCC[C@H]1C2 [Example 10, (9S)-N-(pyrimidin-5-yl)-2-(2-(trifluoromethyl)pyridin-4-yl)-8,9-dihydro-6H-5,9-methanopyrido[2,3-b][1,4]diazocine-10(7H)-carboxamide]
9 | ≥ 150 | A (EC1.5<1 μM) | Cc1cc(-c2ccc3c(n2)N(C(=O)Nc2ccncn2)[C@H]2CCCN3C2)ccn1 [Example 12, (9S)-2-(2-methylpyridin-4-yl)-N-(pyrimidin-4-yl)-8,9-dihydro-6H-5,9-methanopyrido[2,3-b][1,4]diazocine-10(7H)-carboxamide]
10 | ≥ 150 | A (EC1.5<1 μM) | Cc1cc(-c2ccc3c(n2)N(C(=O)Nc2cnccn2)[C@H]2CCCN3C2)ccn1 [Example 13, (9S)-2-(2-methylpyridin-4-yl)-N-(pyrazin-2-yl)-8,9-dihydro-6H-5,9-methanopyrido[2,3-b] [1,4] diazocine-10(7H)-carboxamide]
11 | ≥ 150 | A (EC1.5<1 μM) | Cc1cc(-c2ccc3c(n2)N(C(=O)Nc2cccnn2)[C@H]2CCCN3C2)ccn1 [Example 14, (9S)-2-(2-methylpyridin-4-yl)-N-(pyridazin-3-yl)-8,9-dihydro-6H-5,9-methanopyrido[2,3-b][1,4]diazocine-10(7H)-carboxamide]
12 | ≥ 150 | A (EC1.5<1 μM) | Cc1cc(-c2ccc3c(n2)N(C(=O)Nc2ccc4nn(C)cc4c2)[C@H]2CCCN3C2)ccn1 [Example 15, (9S)-N-(2-methyl-2H-indazol-5-yl)-2-(2-methylpyridin-4-yl)-8,9-dihydro-6H-5,9-methanopyrido[2,3-b][1,4]diazocine-10(7H)-carboxamide]
13 | ≥ 150 | B (EC1.5 1-25 μM) | Cc1cc(-c2ccc3c(n2)N(C(=O)Nc2cncnc2)[C@H]2CCCN3C2)ccn1 [Example 16, (9S)-2-(2-methylpyridin-4-yl)-N-(pyrimidin-5-yl)-8,9-dihydro-6H-5,9-methanopyrido[2,3-b][1,4]diazocine-10(7H)-carboxamide]
14 | ≥ 150 | A (EC1.5<1 μM) | O=C(Nc1cnccn1)N1c2nc(-c3ccnc(C(F)(F)F)c3)ccc2N2CCC[C@H]1C2 [Example 17, (9S)-N-(pyrazin-2-yl)-2-(2-(trifluoromethyl)pyridin-4-yl)-8,9-dihydro-6H-5,9-methanopyrido[2,3-b][1,4]diazocine-10(7H)-carboxamide]
15 | ≥ 150 | A (EC1.5<1 μM) | Cc1cc(-c2ccc3c(n2)N(C(=O)Nc2nc(C)c(C)s2)[C@H]2CCCN3C2)ccn1 [Example 19, (9S)-N-(4,5-dimethylthiazol-2-yl)-2-(2-methylpyridin-4-yl)-8,9-dihydro-6H-5,9-methanopyrido[2,3-b][1,4]diazocine-10(7H)-carboxamide]
